The record followed here is US20230263822A1, “MODULATION OF FACTOR 11 EXPRESSION” (Ionis Pharmaceuticals, Inc., priority 2008, published 2023).

Common to all, as to format: in vivo, BALB/c mice
The subject of data set [1] is blood coagulation. Kind of data set: PT and aPTT, combination with warfarin (Example 21). Here is the method:
Plasma was collected from each group 5 days after the last dose was administered. […] In a final group of BALB/c mice, PBS was administered subcutaneously twice a week for three weeks, as a control. Plasma was collected 5 days after the last PBS treatment.
PT and aPTT values provided in Table 33 are reported as International Normalized Ratio (INR) values.

In data set [2] the test system is blood coagulation. As to the kind of experiment: Sense-oligonucleotide antidote: aPTT (Example 23). The conditions noted are these: ISIS 404071 40 mg/kg s.c. twice a week for three weeks, ISIS 418026 90 mg/kg where given. As for the experimental part:
The effect of the specific sense oligonucleotide to ISIS 404071 as an antidote was tested in BALB/c mice. In a first cohort, ISIS 404071 was administered subcutaneously to BALB/c mice twice a week for three weeks at a dose of 40 mg/kg. In a second cohort, ISIS 404057 was administered subcutaneously to BALB/c mice twice a week for three weeks at a dose of 40 mg/kg. The ISIS 404071 specific antidote, ISIS 418026 ([…]; complementary to ISIS 404071), incorporated herein as SEQ ID NO: 13, was administered to both cohorts subcutaneously in a single injection of 90 mg/kg 48 hours after the final treatment of ISIS 404071 or 404057. In a third cohort, ISIS 404071 was administered subcutaneously to BALB/c mice twice a week for three weeks at a dose of 40 mg/kg. Following the last treatment of ISIS 404071, mice were injected subcutaneously injected with PBS. In a fourth cohort, ISIS 404057 was administered subcutaneously to BALB/c mice twice a week for three weeks at a dose of 40 mg/kg. Following the last treatment of ISIS 404057, mice were injected subcutaneously injected with PBS. Following antidote administration, a set of 4 mice from each cohort were sacrificed at 12 hours, 1 day, 2 days, 3 days, 7 days, and 14 days. Whole liver was collected for RNA analysis and PPP was collected for aPTT analysis.

The next data set deals with Factor 11 mRNA. As to the kind of experiment: Factor 11 mRNA in liver, FeCl3 induced venous thrombosis model vs warfarin (Example 11). The conditions noted are these: for % inhibition of Factor 11 mRNA in liver relative to PBS control: FeCl3 VT model. Here is the method: Two control groups of BALB/c mice were treated with PBS, administered subcutaneously twice a week for 3 weeks. Two days after the last dose of PBS, mice in both groups were anesthetized with 150 mg/kg ketamine mixed with 10 mg/kg xylazine administered by intraperitoneal injection. Thrombus formation was induced with FeCl3 in all groups of mice except the first control group.
In mice undergoing FeCl3 treatment, thrombus formation was induced by applying a piece of filter paper (2×4 mm) pre-saturated with 10% FeCl3 solution directly on the vena cava. After 3 minutes of exposure, the filter paper was removed. Thirty minutes after the filter paper application, a fixed length of the vein containing the thrombus was dissected out for platelet analysis. Liver was collected for RNA analysis.
RNA was extracted from liver tissue for real-time PCR analysis of Factor 11.

Another data set has as its system platelet factor-4 (PF-4). As to the kind of experiment: Factor 7a protein antidote: PF-4 in FeCl3 induced VT model (Example 24). The conditions noted are these: ISIS 404071 20 mg/kg s.c. twice a week for 3 weeks; human Factor 7a 5 μg/kg fifteen minutes before FeCl3 where given. Here is the method: The effect of human Factor 7a (Factor VIIa) protein as an antidote for ISIS 404071 was tested in BALB/c mice. […] Thrombus formation was induced with FeCl3 in all of the mice except the first control group. Fifteen minutes before FeCl3 treatment, the first experimental group was treated with 5 μg/kg of human Factor 7a protein antidote (product no. 407act, American Diagnostica Inc.). Two days after their last dose, all mice were anesthetized with 150 mg/kg of ketamine mixed with 10 mg/kg of xylazine administered by intraperitoneal injection.
In mice undergoing FeCl3 treatment, thrombus formation was induced by applying a piece of filter paper (2×4 mm) pre-saturated with 10% FeCl3 solution directly on the vena cava. After 3 minutes of exposure, the filter paper was removed. Thirty minutes after the filter paper application, a fixed length of the vein containing the thrombus was dissected out for platelet analysis.
Real-time PCR quantification of platelet factor-4 (PF-4) was used to quantify platelets in the vena cava as a measure of thrombus formation. Results are presented as a percentage of PF-4 in antidote treated and untreated mice, as compared to the two PBS-treated control groups.

Data set [3] deals with blood coagulation. Kind of data set: PT and aPTT, combination with LOVENOX (Example 19). Here is the method: PT and aPTT were measured using PPP from mice treated with ISIS 404071 in combination with LOVENOX. In the first cohort, ISIS 404071 was administered subcutaneously to BALB/c mice at a dosage of 25 mg/kg twice a week for 3 weeks. Plasma was collected from these mice 5 days after receiving the last dose of ISIS 404071. In the second cohort, LOVENOX was administered subcutaneously to BALB/c mice at a dosage of 20 mg/kg once daily for three days. Plasma was collected from these mice 4 hours after receiving the last dose of LOVENOX. In the third cohort, ISIS 404071 was administered subcutaneously to BALB/c mice at a dosage of 20 mg/kg twice a week for 3 weeks, and 2 days after receiving the last dose of ISIS 404071, LOVENOX was administered subcutaneously at a dosage of 20 mg/kg once daily. Plasma was collected from these mice 4 hours after the last dose of LOVENOX. In a fourth cohort, PBS was administered subcutaneously twice a week for three weeks, as a control. Plasma was collected from these mice 5 days after the last dose.
PT and aPTT values provided in Table 31 are reported as International Normalized Ratio (INR) values. […] Also shown in Table 31, treatment with LOVENOX and treatment with ISIS 404071 combined with LOVENOX increase aPTT.

[4] abbreviates: BALB/c mice, ISIS 404071 25 or 50 mg/kg, warfarin 2 mg/kg.
Where [5] appears, read: ISIS 404071 25 mg/kg s.c. twice a week for 3 weeks.
Setting [6] is: ISIS 404071 50 mg/kg s.c. twice a week for 3 weeks.
Where [7] appears, read: ISIS 404071 alone 25 mg/kg s.c. twice a week for 3 weeks, LOVENOX alone 20 mg/kg s.c. once daily for three days, combination 20 mg/kg + 20 mg/kg.

For the substance “ISIS 404071: antisense oligonucleotide targeted to murine Factor 11 mRNA, TGGTAATCCACTTTCAGAGG, target start site 869 (chemistry not given here)”, the “PT” value is given as “not affected” in the data set on blood coagulation [1] (setting [4]) and “not significantly affected” in the data set with blood coagulation [3] (BALB/c mice, ISIS 404071 25 or 20 mg/kg, LOVENOX 20 mg/kg). For the same substance, the “aPTT” value in the data set on blood coagulation [1] (setting [4]) is “affected”. Besides, the “PT INR” value in the data set with blood coagulation [1] (setting [5]) is given as 0.98 INR; with blood coagulation [1] (setting [6]), 0.93 INR; in the data set with blood coagulation [3] (setting [7]) it was 0.95 INR. For the same substance, the “aPTT INR” value in the data set with blood coagulation [1] (setting [5]) is 1.37 INR; with blood coagulation [1] (setting [6]) it was 1.49 INR; in the data set with blood coagulation [2] (12 hours after antidote/PBS), 1.51 INR; in the data set on blood coagulation [2] (1 day after antidote/PBS), 1.30 INR; in the data set with blood coagulation [2] (2 day after antidote/PBS) it was 1.35 INR; in the data set with blood coagulation [2] (3 day after antidote/PBS), 1.27 INR. Moreover, the results for the “aPTT INR” value with blood coagulation [2] (7 day after antidote/PBS), in the data set with blood coagulation [2] (14 day after antidote/PBS) and with blood coagulation [3] (setting [7]) were 1.18 INR, 1.05 INR and 1.31 INR, respectively. For the same substance, the “Factor 11 mRNA in liver vs PBS control” value with Factor 11 mRNA (FeCl3 induced VT model, ISIS 404071 1.25-40 mg/kg s.c. twice a week 3 weeks, warfarin 0.5-5 mg/kg daily 6 days) is “significant dose-dependent reduction of Factor 11 mRNA”. In addition, the “% inhibition of Factor 11 mRNA in liver relative to PBS control” value with Factor 11 mRNA (ISIS 404071 1.25 mg/kg subcutaneously twice a week for 3 weeks) turned out to be 0%; in the data set on Factor 11 mRNA (ISIS 404071 5 mg/kg subcutaneously twice a week for 3 weeks), 62%; with Factor 11 mRNA (ISIS 404071 10 mg/kg subcutaneously twice a week for 3 weeks) it was 78%; in the data set with Factor 11 mRNA (ISIS 404071 20 mg/kg subcutaneously twice a week for 3 weeks), 92%; in the data set with Factor 11 mRNA (ISIS 404071 40 mg/kg subcutaneously twice a week for 3 weeks), 96%. The “PF-4 in vena cava, percentage as compared to PBS controls (thrombus formation)” value in the data set with platelet factor-4 (PF-4) came out at 18%.
